Test results published in patent publication US12590338B2, “Method and device for detection of ampicillin-resistant non-typhoidal Salmonella” (priority 2018, dated 2026).

Test system: NTS clinical isolates
Test: Antibiotics susceptibility test to ampicillin (CLSI disc inhibition zone and/or MIC); further: key: R = Resistant to ampicillin; S = Susceptible to ampicillin
Format: cell-based, non-typhoidal Salmonella
Protocol: Before the NGS study, the antimicrobial susceptibility to ampicillin in the 169 isolates was re-confirmed using the disc inhibition zones or MICs (FIG. 1). Then, the bacterial DNAs were extracted from 53 NTS isolates and NGS was performed using the Illumina© MiSeq sequencer. Subsequently, the NTS serotypes of 53 NTS clinical isolates were confirmed by multilocus sequence typing (MLST) as shown in Table 1. The big genomic data were analyzed to examine presence of plasmid-mediated genes or genetic mutations in the bacterial genome of Salmonella spp. and other bacteria reported in the PubMed, ARG-ANNOT, CARD, and ResFinder (FIG. 1).
The 169 NTS clinical isolates were tested for antimicrobial susceptibility based on (CLSI) guidelines. Briefly, bacteria were spread onto Mueller-Hinton MH agar, and co-incubated with antimicrobial disks (Oxoid, Cambridge, UK) of ampicillin individually at 37° C. for 18 hours. Another alternative is measurement of the minimum inhibitory concentrations (MICs) of ampicillin in serial dilutions of ampicillin co-cultured with bacterial solution of NTS isolates. Finally, the resistance to ampicillin in NTS isolates was determined according to the diameter of inhibition zone (≤13 mm) and/or the MIC of ampicillin>16 μg/mL according to the guideline of CLSI.

CC1(C)S[C@@H]2[C@H](NC(=O)[C@H](N)c3ccccc3)C(=O)N2[C@H]1C(=O)O [ampicillin]
AMP-R (NTS isolate SH-12, serotype Amsterdam): S | AMP-R (NTS isolate SH-A1, serotype Enteritidis): S | AMP-R (NTS isolate SH-B2, serotype Enteritidis): R | AMP-R (NTS isolate SH-B5, serotype Enteritidis): R | AMP-R (NTS isolate SH-C2, serotype Newport): S | AMP-R (NTS isolate SH-C3, serotype Enteritidis): S | AMP-R (NTS isolate SH-C4, serotype Typhimurium): R | AMP-R (NTS isolate SH-D2, serotype Enteritidis): S | AMP-R (NTS isolate SH-D4, serotype Enteritidis): S | AMP-R (NTS isolate SH-D5, serotype Typhimurium): S | AMP-R (NTS isolate SH-E1, serotype Unknown): R | AMP-R (NTS isolate SH-E2, serotype Virchow): S | AMP-R (NTS isolate SH-E3, serotype Newport): S | AMP-R (NTS isolate SH-F4, serotype Typhimurium): R | AMP-R (NTS isolate SH-F5, serotype Enteritidis): R | AMP-R (NTS isolate SH-G1, serotype Stanley): S | AMP-R (NTS isolate SH-G2, serotype Typhimurium): R | AMP-R (NTS isolate SH-G3, serotype Enteritidis): R | AMP-R (NTS isolate SH-G5, serotype Albany): R | AMP-R (NTS isolate SH-H3, serotype Derby): S | AMP-R (NTS isolate SH-H4, serotype Newport): R | AMP-R (NTS isolate TSAR-C1, serotype Schwarzengrund): R | AMP-R (NTS isolate TSAR-C2, serotype Schwarzengrund): R | AMP-R (NTS isolate TSAR-C3, serotype Schwarzengrund): R | AMP-R (NTS isolate TSAR-C4, serotype Typhimurium): R | AMP-R (NTS isolate TSAR-C5, serotype Choleraesuis): R | AMP-R (NTS isolate TSAR-C6, serotype Typhimurium): R | AMP-R (NTS isolate TSAR-C7, serotype Typhimurium): R | AMP-R (NTS isolate TSAR-C10, serotype Enteritidis): R | AMP-R (NTS isolate TSAR-C13, serotype Stanley): R | AMP-R (NTS isolate TSAR-C16, serotype Typhimurium): R | AMP-R (NTS isolate TSAR-C19, serotype Stanley): R | AMP-R (NTS isolate TSAR-E5, serotype Choleraesuis): R | AMP-R (NTS isolate TSAR-E9, serotype Choleraesuis): R | AMP-R (NTS isolate TSAR-E10, serotype Typhimurium): R | AMP-R (NTS isolate TSAR-E16, serotype Virchow): R | AMP-R (NTS isolate TSAR-E18, serotype Meleagridis): R | AMP-R (NTS isolate TSAR-E19, serotype Newport): R | AMP-R (NTS isolate TSAR-E20, serotype Typhimurium): R | AMP-R (NTS isolate TSAR-N5, serotype Typhimurium): R | AMP-R (NTS isolate TSAR-N8, serotype Typhimurium): R | AMP-R (NTS isolate TSAR-N9, serotype Montevideo): R | AMP-R (NTS isolate TSAR-N15, serotype Schwarzengrund): R | AMP-R (NTS isolate TSAR-N16, serotype Agona): R | AMP-R (NTS isolate TSAR-N19, serotype Enteritidis): R | AMP-R (NTS isolate TSAR-S13, serotype Albany): R | AMP-R (NTS isolate TSAR-S14, serotype Typhimurium): R | AMP-R (NTS isolate TSAR-S15, serotype Enteritidis): R | AMP-R (NTS isolate TSAR-S16, serotype Agona): R | AMP-R (NTS isolate TSAR-S17, serotype Newport): R | AMP-R (NTS isolate TSAR-S18, serotype Newport): R | AMP-R (NTS isolate TSAR-S19, serotype Agona): R | AMP-R (NTS isolate TSAR-S20, serotype Livingstone): R
